Measurements: patent US9783539B2, “Indoloquinolone compounds as anaplastic lymphoma kinase (ALK) inhibitors” (Jiangsu Ascentage Biomed Development Inc., priority 2014, dated 2017)
“And” between values parts separate entries of the source, which are not always exact repeats. Equal entries are not always repeated. Where two headings read alike, the source gives them in different places.

Columns and labels:
[1] = target: wild-type human ALK protein (cytoplasmic domain, amino acid 1058-1620, GST-fusion) (Homo sapiens, UniProt Q9UM73); test: biochemical; conditions: 100 μM ATP
Protocol: (§2) Kinase activities of all enzymes were assessed using a Lance TR-FRET assay kit from Perkin Elmer Life Sciences (Waltham, Mass.). 2.5 μL of compound solution and 5 μL of protein solution were added into a black low volume 384 well microtiter plate which was incubated for 15 minutes with gentle shaking at room temperature, followed by adding 2.5 μL of fluorescently labeled peptide substrate (Ulight-[sequence]) and ATP mixture solution. The kinase reaction was performed in 50 mM HEPES (pH 7.5) with 1 mM EGTA, 1 mM MgCl2, and 2 mM DTT, 0.01% Tween-20 added right before the assay. […] The reaction was allowed to perform for 90 minutes in dark with gentle shaking at room temperature after which 10 μL of 20 mM EDTA and 2 nM Eu-W1024 anti-phosphotyrosine antibody (PT66) mixture solution in the detection buffer from the manufacturer was added to terminate the reaction and detect the phosphorylation of the peptide substrate. Final mixture was incubated in the dark for 1 hour before the plate was read on a Tecan Infinite M-1000 multi-mode plate reader (Tecan, Durham N.C.) with an excitation wavelength of 320 nm.

[2] = target: ALK mutant (G1269A) (Homo sapiens, UniProt Q9UM73, G1269A); test: biochemical; conditions: 100 μM ATP
Protocol: as §2

[3] = target: ALK mutant (S1206Y) (Homo sapiens, UniProt Q9UM73, S1206Y); test: biochemical
Protocol: as §2

[4] = system: Kappas-299 cells containing NPM-ALK fusion protein; test: 4-day cell viability assay (CellTiter-Glo), Kappas-299; type: cell-based; conditions: NPM-ALK, 96 h, inhibition of cell growth, 4 days, multiple values from independent experiments
Protocol: (§1) The effect of compounds on cell viability was determined in a 4-day proliferation assay. Cells were maintained in RPMI1640 culture medium with 10% FBS at 37° C. and an atmosphere of 5% CO2. […] Cells were seeded in 96-well plates at a density of 3,000-10,000 cells/well in 75 μl of culture medium. Compounds were serially diluted in the appropriate medium, and 75 μl of the diluted compounds were added to the appropriate wells of the cell plate. After the addition of compounds, the cells were incubated at 37° C. in an atmosphere of 5% CO2 for 4 days. Cell viability was determined using the CellTiter-Glo® Luminescent Cell Viability Assay Kit (Promega, Madison, Wis.) (for KARPAS-299 cells) or WST (2-(2-methoxy-4-nitrophenyl)-3-(4-nitrophenyl)-5-(2,4-disulfophenyl)-2H-tetrazolium, monosodium salt) Cell Counting-8 Kit (Dojindo Molecular Technologies, Inc., Rockville, Md.) (for H3122 cells) according to the manufacturers' instructions.
For CellTiter-Glo assay, 100 μl of CellTiter-Glo® Reagent was added to each well, and then the plates were incubated at room temperature for 10-20 minutes. The luminescent signal was measured using a Tecan Infinite M1000 multimode microplate reader (Tecan, Morrisville, N.C.). The readings were normalized to the DMSO-treated cells and the IC50 was calculated by nonlinear regression analysis using the GraphPad Prism 5 software.
Cells were treated for four days and cell growth was determined using a CellTiter-Glo assay.

[5] = system: H3122 non-small cell lung cancer cell line harboring the EML4-ALK fusion gene; test: 4-day cell viability assay (WST), H3122; type: cell-based; conditions: Homo sapiens, NCI-H3122, 96 h, 4 days, read-out: IC50 (nM) in Inhibition of Tumor Cell Growth H3122 Cell line
Protocol: as §1
For WST assay, WST-8 reagent was added to each well at a final concentration of 10% (v/v), and then the plates were incubated at 37° C. for 1-2 hours for color development. The absorbance was measured at 450 nm using a SPECTRAmax PLUS plate reader (Molecular Devices, Sunnyvale, Calif.). The readings were normalized to the DMSO-treated cells and the half maximal inhibitory concentration (IC50) was calculated by nonlinear regression analysis using the GraphPad Prism 5 software (GraphPad Software, La Jolla, Calif.).
Cells were treated for four days and cell growth was determined using a WST assay.

[6] = Pharmacokinetic parameters in SD rats, IV and PO; design: AUC(0-t): concentration or dose not given beside the values; conditions: Sprague-Dawley (SD), rat, in vivo; for bioavailability: po, read-out: Oral Bioavailability (F)
Text: The pharmacokinetic (PK) parameters in SD rats for selected compounds with intravenous (IV) and oral (PO) administrations are provided in the following table (Table 5).

[7] = IC50 ALK Wild-type, Table 2, wild-type ALK
[8] = intravenous, read-out: AUC0-t IV
[9] = intravenous, read-out: t1/2 IV (converted)
[10] = oral, read-out: t1/2 PO (converted)

ALK mutant (G1269A), sequence (Q9UM73 19-1620 G1269A): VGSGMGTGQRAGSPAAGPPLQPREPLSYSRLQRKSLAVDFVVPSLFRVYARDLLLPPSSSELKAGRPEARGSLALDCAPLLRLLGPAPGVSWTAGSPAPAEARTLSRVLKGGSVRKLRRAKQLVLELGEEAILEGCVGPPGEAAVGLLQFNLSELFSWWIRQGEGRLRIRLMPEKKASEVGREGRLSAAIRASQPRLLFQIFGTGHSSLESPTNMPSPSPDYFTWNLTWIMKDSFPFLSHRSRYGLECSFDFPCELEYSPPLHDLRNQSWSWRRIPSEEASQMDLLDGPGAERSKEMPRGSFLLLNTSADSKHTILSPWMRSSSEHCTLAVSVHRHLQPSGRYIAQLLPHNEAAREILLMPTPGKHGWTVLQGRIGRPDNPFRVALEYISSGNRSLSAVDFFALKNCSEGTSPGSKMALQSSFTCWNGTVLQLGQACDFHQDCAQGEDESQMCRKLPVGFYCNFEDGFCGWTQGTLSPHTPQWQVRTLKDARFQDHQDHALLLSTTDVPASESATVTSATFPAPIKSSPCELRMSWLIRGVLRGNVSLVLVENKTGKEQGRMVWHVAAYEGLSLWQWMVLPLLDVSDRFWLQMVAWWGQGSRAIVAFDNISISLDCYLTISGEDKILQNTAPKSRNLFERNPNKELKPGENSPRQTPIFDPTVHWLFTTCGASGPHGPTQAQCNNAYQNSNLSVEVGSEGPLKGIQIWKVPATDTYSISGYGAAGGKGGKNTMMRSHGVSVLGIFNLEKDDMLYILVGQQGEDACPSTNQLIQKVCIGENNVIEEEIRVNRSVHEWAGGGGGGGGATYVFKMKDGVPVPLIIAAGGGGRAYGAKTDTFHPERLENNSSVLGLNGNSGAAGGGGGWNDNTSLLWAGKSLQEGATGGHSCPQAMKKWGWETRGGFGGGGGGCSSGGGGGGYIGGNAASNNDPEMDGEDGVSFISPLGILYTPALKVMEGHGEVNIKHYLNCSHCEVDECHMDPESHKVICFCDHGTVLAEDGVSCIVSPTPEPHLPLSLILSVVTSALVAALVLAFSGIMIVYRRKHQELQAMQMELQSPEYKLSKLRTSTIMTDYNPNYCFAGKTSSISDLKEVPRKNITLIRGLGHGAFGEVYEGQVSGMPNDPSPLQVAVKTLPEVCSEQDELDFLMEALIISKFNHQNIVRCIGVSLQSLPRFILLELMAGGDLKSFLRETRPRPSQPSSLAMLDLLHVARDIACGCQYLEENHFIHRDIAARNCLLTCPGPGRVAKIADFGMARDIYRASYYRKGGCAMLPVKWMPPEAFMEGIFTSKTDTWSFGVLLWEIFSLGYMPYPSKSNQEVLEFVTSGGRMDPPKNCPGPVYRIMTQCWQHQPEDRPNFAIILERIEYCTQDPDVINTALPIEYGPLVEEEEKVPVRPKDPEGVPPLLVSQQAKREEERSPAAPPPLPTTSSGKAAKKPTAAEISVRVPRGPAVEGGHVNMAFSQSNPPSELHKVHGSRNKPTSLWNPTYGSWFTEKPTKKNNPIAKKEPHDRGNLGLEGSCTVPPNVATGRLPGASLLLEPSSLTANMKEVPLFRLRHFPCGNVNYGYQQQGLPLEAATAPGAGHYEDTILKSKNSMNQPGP
wild-type human ALK protein (cytoplasmic domain, amino acid 1058-1620, GST-fusion), sequence (Q9UM73 1058-1620): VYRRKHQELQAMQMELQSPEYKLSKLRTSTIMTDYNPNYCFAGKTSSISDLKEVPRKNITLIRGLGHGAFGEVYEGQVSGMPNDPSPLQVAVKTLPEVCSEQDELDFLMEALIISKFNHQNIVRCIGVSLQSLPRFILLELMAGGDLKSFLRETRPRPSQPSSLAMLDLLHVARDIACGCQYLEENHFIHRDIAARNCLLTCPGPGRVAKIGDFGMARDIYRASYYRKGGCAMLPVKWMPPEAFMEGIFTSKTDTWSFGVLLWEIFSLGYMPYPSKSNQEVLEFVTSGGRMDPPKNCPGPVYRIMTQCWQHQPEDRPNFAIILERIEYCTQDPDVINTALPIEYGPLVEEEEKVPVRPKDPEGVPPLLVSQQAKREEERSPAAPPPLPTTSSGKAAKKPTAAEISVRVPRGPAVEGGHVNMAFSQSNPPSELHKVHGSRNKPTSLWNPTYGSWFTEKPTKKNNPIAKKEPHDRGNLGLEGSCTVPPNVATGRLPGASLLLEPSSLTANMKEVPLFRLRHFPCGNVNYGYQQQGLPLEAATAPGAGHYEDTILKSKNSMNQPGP
ALK mutant (S1206Y), sequence (Q9UM73 19-1620 S1206Y): as the sequence (Q9UM73 19-1620 G1269A) above, with S1188Y, A1251G counted along it

Row | IC50 ([1]; ALK IC50, wild-type ALK) [nM] | IC50 [5] [nM] | SMILES | IC50 [4] [nM] | further results
1 | 0.31 | – | C#Cc1cc2c(=O)c3c4ccc(C#N)cc4[nH]c3n(C(C)C)c2cc1N1CCN(C)CC1 [ALK-71, 2-Ethynyl-5-isopropyl-3-(4-methylpiperazin-1-yl)-11-oxo-6,11-dihydro-5H-indolo[2,3-b]quinoline-8-carbonitrile] | 31 | IC50 [1, 7]: 0.31 nM; IC50 [2]: 0.47 nM and 0.55 nM; IC50 [3]: 1.3 nM
2 | 0.67 | – | C#Cc1cc2c(=O)c3c4ccc(C#N)cc4[nH]c3n(C3CCC3)c2cc1N1CCN(C)CC1 [ALK-72, 5-Cyclobutyl-2-ethynyl-3-(4-methylpiperazin-1-yl)-11-oxo-6,11-dihydro-5H-indolo[2,3-b]quinoline-8-carbonitrile] | 52 | IC50 [1, 7]: 0.67 nM; IC50 [2]: 2.4 nM; IC50 [3]: 2.8 nM
3 | 2.5 | 85 ± 11 | CCOc1cc2c(=O)c3c4ccc(C#N)cc4[nH]c3n(C(C)C)c2c(F)c1N1CCC(N2CCOCC2)CC1 [ALK-76, 2-Ethoxy-4-fluoro-5-isopropyl-3-(4-morpholinopiperidin-1-yl)-11-oxo-6,11-dihydro-5H-indolo[2,3-b]quinoline-8-carbonitrile] | 35 | –
4 | 1.1 | 25.9 | CCc1cc2c(=O)c3c4ccc(C#N)cc4[nH]c3n(C(C)C)c2cc1N1CCN(C2COC2)CC1 [ALK-77, 2-Ethyl-5-isopropyl-3-(4-(oxetan-3-yl)piperazin-1-yl)-11-oxo-6,11-dihydro-5H-indolo[2,3-b]quinoline-8-carbonitrile] | 31 | –
5 | 0.7 | 13.1 | CCc1cc2c(=O)c3c4ccc(C#N)cc4[nH]c3n(C(C)C)c2cc1N1CCC(N2CCOCC2)CC1 [ALK-78, 2-Ethyl-5-isopropyl-3-(4-morpholinopiperidin-1-yl)-11-oxo-6,11-dihydro-5H-indolo[2,3-b]quinoline-8-carbonitrile] | 25 | –
6 | 0.11 | 2 ± 1 | CCc1cc2c(=O)c3c4ccc(C#N)cc4[nH]c3n(C(C)C)c2cc1N1CCC(N2CCN(C)CC2)CC1 [ALK-79, 2-Ethyl-5-isopropyl-3-(4-(4-methylpiperazin-1-yl)piperidin-1-yl)-11-oxo-6,11-dihydro-5H-indolo[2,3-b]quinoline-8-carbonitrile] | 9.6 | –
7 | 0.22 | 3 ± 1 | CCc1cc2c(=O)c3c4ccc(C#N)cc4[nH]c3n(C(C)C)c2cc1N1CCN(C(C)C)CC1 [ALK-80, 2-Ethyl-5-isopropyl-3-(4-isopropylpiperazin-1-yl)-11-oxo-6,11-dihydro-5H-indolo[2,3-b]quinoline-8-carbonitrile] | 7.6 | –
8 | 2 | 8.8 | CCOc1cc2c(=O)c3c4ccc(C#N)cc4[nH]c3n(C(C)C)c2c(F)c1N1CCN(C)CC1 [ALK-83, 2-Ethoxy-4-fluoro-5-isopropyl-3-(4-methylpiperazin-1-yl)-11-oxo-6,11-dihydro-5H-indolo[2,3-b]quinoline-8-carbonitrile] | 21 | AUC(0-t) [6, 8]: 1100 ng·h/mL; Cmax ([6]; intravenous, read-out: Cmax IV): 346 ng/mL; Tmax ([6]; intravenous, read-out: Tmax IV): 0.083 h; half-life [6, 9]: 5.24 h; AUC(0-t) ([6]; oral, read-out: AUC0-t PO): 4430 ng·h/mL; Cmax ([6]; oral, read-out: Cmax PO): 548 ng/mL; Tmax ([6]; oral, read-out: Tmax PO): 4 h; half-life [6, 10]: 4.1 h; bioavailability [6]: 78.8%
9 | 22.9 | 148 ± 26 | CC(C)Oc1cc2c(=O)c3c4ccc(C#N)cc4[nH]c3n(C(C)C)c2c(F)c1N1CCC(N2CCOCC2)CC1 [ALK-85, 4-Fluoro-2-isopropoxy-5-isopropyl-3-(4-morpholinopiperidin-1-yl)-11-oxo-6,11-dihydro-5H-indolo[2,3-b]quinoline-8-carbonitrile] | 66 | –
10 | 5.8 | 161 | CC(C)Oc1cc2c(=O)c3c4ccc(C#N)cc4[nH]c3n(C(C)C)c2c(F)c1N1CCN(C)CC1 [ALK-86, 4-Fluoro-2-isopropoxy-5-isopropyl-3-(4-methylpiperazin-1-yl)-11-oxo-6,11-dihydro-5H-indolo[2,3-b]quinoline-8-carbonitrile] | 31 | AUC(0-t) [6, 8]: 1080 ng·h/mL; Cmax ([6]; intravenous, read-out: Cmax IV): 261 ng/mL; Tmax ([6]; intravenous, read-out: Tmax IV): 0.083 h; half-life [6, 9]: 5.23 h; AUC(0-t) ([6]; oral, read-out: AUC0-t PO): 2440 ng·h/mL; Cmax ([6]; oral, read-out: Cmax PO): 258 ng/mL; Tmax ([6]; oral, read-out: Tmax PO): 4 h; half-life [6, 10]: 5.11 h; bioavailability [6]: 44.6%
11 | 0.52 | 17 ± 8 | CCc1cc2c(=O)c3c4ccc(C#N)cc4[nH]c3n(C(C)C)c2cc1C1CCN(C)CC1 [CJ-2217, 2-Ethyl-5-isopropyl-3-(1-methylpiperidin-4-yl)-11-oxo-6,11-dihydro-5H-indolo[2,3-b]quinoline-8-carbonitrile] | 14 | –
12 | 2.6 | 1040 | CCc1cc2c(=O)c3c4ccc(C#N)cc4[nH]c3n(C(C)C)c2cc1C1CCN(C2COC2)CC1 [CJ-2238, 2-Ethyl-5-isopropyl-3-(1-(oxetan-3-yl)piperidin-4-yl)-11-oxo-6,11-dihydro-5H-indolo[2,3-b]quinoline-8-carbonitrile] | 231 | –
13 | 0.77 | 36 ± 13 | CCc1cc2c(=O)c3c4ccc(C#N)cc4[nH]c3n(C(C)C)c2cc1C1CCN(C(C)C)CC1 [CJ-2239, 2-Ethyl-5-isopropyl-3-(1-isopropylpiperidin-4-yl)-11-oxo-6,11-dihydro-5H-indolo[2,3-b]quinoline-8-carbonitrile] | 16 | –
14 | 0.78 | 33 ± 12 | CCc1cc2c(=O)c3c4ccc(C#N)cc4[nH]c3n(C(C)C)c2cc1C1CCN(C2CCOCC2)CC1 [CJ-2240, 2-Ethyl-5-isopropyl-11-oxo-3-(1-(tetrahydro-2H-pyran-4-yl)piperidin-4-yl)-6,11-dihydro-5H-indolo[2,3-b]quinoline-8-carbonitrile] | 35 | –
15 | 0.32 | 154 | CCc1cc2c(=O)c3c4ccc(C#N)cc4[nH]c3n(C(C)C)c2cc1C1CCN(CCO)CC1 [CJ-2241, 2-Ethyl-3-(1-(2-hydroxyethyl)piperidin-4-yl)-5-isopropyl-11-oxo-6,11-dihydro-5H-indolo[2,3-b]quinoline-8-carbonitrile] | 292 | –
